Measured values reported in ChEMBL document CHEMBL5653615 (J Biol Chem, 2013).

Experiments:
[1] = biological target: CDK9/Cyclin K (Homo sapiens) (UniProt P50750+O75909); assay: Inhibition of human CDK9/cyclin K at 18.6 nM by HotSpot assay relative to control; assay type: protein-complex assay
[2] = biological target: T1, Myotonin-protein kinase (Homo sapiens) (UniProt Q09013); assay: Inhibition of human DMPK at 18.6 nM by HotSpot assay relative to control
T1 sequence (whole entry): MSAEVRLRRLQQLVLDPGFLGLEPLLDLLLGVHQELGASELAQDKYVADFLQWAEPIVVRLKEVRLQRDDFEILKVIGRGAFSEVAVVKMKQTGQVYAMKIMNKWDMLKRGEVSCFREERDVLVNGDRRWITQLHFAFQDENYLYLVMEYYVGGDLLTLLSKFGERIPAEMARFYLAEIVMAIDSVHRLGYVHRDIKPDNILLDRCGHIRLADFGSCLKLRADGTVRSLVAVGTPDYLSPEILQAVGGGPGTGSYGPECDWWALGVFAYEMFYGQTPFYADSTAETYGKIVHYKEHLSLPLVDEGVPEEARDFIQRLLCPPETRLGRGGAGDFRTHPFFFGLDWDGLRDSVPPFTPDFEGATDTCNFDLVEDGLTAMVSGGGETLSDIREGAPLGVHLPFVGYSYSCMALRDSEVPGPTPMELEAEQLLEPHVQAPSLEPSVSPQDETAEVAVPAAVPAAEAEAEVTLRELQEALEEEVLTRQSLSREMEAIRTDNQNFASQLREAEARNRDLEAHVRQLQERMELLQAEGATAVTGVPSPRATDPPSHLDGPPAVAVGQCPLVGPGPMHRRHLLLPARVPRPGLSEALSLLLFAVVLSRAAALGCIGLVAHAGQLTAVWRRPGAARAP

[3] = biological target: Mitogen-activated protein kinase 8 (Homo sapiens) (UniProt P45983); assay: Inhibition of human JNK1 at 18.6 nM by HotSpot assay relative to control
Chain of Mitogen-activated protein kinase 8 (Homo sapiens) (P45983 whole entry): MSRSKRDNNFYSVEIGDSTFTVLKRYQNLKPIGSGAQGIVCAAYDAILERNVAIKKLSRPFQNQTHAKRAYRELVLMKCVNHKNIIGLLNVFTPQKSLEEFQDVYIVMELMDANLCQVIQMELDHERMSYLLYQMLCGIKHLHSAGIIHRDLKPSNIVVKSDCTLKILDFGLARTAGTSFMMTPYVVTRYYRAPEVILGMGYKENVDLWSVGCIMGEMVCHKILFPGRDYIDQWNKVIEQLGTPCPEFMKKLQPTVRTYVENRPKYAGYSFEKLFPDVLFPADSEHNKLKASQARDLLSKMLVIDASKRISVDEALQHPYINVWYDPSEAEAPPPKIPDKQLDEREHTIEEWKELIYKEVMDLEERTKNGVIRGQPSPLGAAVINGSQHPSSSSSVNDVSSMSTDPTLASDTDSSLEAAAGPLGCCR

[4] = biological target: Serine/threonine-protein kinase PAK 3 (Homo sapiens) (UniProt O75914); assay: Inhibition of human PAK3 at 18.6 nM by HotSpot assay relative to control
Chain of Serine/threonine-protein kinase PAK 3 (Homo sapiens) (O75914 whole entry, looked up, the tested form may be a part): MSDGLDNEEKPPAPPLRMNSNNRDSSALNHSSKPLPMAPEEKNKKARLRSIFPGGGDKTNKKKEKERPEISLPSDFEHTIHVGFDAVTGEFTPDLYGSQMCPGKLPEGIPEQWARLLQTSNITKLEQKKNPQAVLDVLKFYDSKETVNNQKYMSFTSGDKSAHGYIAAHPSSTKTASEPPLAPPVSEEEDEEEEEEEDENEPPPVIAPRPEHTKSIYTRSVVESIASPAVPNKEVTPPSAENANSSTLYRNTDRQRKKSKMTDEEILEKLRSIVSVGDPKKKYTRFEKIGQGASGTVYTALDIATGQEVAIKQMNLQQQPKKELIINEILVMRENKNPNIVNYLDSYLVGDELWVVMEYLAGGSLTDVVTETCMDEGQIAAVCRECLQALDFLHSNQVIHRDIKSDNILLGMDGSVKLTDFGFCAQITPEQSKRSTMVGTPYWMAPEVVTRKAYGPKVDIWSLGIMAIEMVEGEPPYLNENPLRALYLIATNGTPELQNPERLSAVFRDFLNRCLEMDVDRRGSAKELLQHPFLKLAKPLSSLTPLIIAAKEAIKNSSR

[5] = biological target: PAS domain-containing serine/threonine-protein kinase (Homo sapiens) (UniProt Q96RG2); assay: Inhibition of human PASK at 18.6 nM by HotSpot assay relative to control
[6] = biological target: T2, Dual serine/threonine and tyrosine protein kinase (Homo sapiens) (UniProt Q6XUX3); assay: Inhibition of human RIPK5 at 18.6 nM by HotSpot assay relative to control
T2 sequence (whole entry): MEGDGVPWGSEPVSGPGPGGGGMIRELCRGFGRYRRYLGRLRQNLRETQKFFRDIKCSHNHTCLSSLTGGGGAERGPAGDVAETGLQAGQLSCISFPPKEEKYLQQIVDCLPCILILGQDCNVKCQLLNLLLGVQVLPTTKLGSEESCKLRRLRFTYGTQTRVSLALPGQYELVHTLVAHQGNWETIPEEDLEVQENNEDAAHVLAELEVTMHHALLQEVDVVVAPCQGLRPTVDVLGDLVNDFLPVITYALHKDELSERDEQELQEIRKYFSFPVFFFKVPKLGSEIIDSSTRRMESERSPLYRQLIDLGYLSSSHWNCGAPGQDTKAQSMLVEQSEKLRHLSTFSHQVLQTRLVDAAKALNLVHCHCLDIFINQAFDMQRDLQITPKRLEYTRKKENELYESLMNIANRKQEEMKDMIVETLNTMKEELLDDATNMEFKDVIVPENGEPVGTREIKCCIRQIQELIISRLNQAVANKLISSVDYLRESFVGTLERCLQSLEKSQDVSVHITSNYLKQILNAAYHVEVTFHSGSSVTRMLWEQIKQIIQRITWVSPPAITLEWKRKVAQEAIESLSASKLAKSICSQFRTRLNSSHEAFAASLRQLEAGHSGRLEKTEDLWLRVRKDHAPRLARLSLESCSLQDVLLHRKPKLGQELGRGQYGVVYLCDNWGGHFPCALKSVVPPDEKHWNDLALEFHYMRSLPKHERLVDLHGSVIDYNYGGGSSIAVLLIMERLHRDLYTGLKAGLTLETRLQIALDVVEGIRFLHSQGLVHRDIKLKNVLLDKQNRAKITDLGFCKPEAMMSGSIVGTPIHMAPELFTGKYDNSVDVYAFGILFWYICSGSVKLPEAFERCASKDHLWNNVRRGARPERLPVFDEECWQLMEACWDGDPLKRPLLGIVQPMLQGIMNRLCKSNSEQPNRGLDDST

[7] = biological target: Macrophage-stimulating protein receptor (Homo sapiens) (UniProt Q04912); assay: Inhibition of human MST1R at 18.6 nM by HotSpot assay relative to control
Chain of Macrophage-stimulating protein receptor (Homo sapiens) (Q04912 25-304 limits assumed): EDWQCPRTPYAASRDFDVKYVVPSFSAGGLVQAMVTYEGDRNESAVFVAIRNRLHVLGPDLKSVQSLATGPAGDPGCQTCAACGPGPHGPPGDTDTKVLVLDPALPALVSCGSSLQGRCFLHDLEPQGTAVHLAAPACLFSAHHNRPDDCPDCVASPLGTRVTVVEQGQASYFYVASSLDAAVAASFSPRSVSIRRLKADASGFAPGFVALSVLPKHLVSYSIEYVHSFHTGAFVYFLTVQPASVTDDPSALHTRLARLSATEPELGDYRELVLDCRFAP
Chain of Macrophage-stimulating protein receptor (Homo sapiens) (Q04912 310-1400 limits assumed): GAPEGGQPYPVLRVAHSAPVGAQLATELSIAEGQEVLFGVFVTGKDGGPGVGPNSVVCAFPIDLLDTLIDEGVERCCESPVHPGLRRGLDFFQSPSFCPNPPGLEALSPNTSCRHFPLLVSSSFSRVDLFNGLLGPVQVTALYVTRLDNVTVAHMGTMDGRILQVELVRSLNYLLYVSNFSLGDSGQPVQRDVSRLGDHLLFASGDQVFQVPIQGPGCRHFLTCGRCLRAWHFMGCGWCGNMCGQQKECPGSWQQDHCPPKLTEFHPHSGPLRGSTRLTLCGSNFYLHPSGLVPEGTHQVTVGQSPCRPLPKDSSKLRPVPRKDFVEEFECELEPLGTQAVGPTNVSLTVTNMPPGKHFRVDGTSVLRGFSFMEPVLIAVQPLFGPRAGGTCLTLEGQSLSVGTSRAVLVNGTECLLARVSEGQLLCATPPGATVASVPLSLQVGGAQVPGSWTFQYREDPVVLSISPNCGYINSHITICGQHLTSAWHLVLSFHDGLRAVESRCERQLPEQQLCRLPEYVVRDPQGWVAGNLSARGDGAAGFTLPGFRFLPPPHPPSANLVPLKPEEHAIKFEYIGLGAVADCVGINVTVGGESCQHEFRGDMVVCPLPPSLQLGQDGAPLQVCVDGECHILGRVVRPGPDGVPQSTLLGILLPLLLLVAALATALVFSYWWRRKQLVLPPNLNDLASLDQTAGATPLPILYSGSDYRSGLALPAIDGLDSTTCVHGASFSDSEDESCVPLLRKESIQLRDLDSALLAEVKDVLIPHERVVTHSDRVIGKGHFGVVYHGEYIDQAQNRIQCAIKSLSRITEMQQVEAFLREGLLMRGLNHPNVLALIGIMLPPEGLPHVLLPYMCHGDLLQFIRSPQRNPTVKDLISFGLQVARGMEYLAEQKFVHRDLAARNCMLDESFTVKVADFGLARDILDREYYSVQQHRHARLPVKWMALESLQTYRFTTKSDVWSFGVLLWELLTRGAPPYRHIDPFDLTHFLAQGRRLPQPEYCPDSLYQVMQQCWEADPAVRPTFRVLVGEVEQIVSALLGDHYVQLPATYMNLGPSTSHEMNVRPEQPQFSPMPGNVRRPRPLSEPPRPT

[8] = biological target: CDK3/Cyclin E (Homo sapiens) (UniProt P24864+Q00526); assay: Inhibition of human CDK3/cyclin E at 1.82 nM by HotSpot assay relative to control; assay type: protein-complex assay
Chain of CDK3/Cyclin E (Homo sapiens) (P24864 whole entry, looked up): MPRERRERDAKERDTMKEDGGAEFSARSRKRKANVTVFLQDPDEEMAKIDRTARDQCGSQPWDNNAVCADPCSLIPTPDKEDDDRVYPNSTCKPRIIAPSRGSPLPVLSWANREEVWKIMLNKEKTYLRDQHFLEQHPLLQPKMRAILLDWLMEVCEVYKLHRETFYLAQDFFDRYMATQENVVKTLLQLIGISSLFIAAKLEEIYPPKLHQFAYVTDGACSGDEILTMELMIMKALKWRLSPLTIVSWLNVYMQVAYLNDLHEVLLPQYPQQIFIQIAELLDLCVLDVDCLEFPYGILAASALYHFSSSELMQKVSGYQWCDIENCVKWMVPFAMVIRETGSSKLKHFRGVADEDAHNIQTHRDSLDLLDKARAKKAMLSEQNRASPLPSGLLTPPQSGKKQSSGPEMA
Chain of CDK3/Cyclin E (Homo sapiens) (Q00526 whole entry, looked up): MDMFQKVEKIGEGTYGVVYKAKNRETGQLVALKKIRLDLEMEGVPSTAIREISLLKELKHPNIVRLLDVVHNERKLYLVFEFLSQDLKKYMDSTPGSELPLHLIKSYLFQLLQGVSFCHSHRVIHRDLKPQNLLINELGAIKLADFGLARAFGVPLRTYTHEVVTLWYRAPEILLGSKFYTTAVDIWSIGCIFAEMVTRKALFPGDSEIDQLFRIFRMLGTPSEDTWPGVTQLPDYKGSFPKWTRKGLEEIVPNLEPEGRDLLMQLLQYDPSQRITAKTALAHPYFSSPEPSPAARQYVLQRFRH

[9] = biological target: Serine/threonine-protein kinase 10 (Homo sapiens) (UniProt O94804); assay: Inhibition of human LOK at 1.82 nM by HotSpot assay relative to control
Chain of Serine/threonine-protein kinase 10 (Homo sapiens) (O94804 whole entry, looked up): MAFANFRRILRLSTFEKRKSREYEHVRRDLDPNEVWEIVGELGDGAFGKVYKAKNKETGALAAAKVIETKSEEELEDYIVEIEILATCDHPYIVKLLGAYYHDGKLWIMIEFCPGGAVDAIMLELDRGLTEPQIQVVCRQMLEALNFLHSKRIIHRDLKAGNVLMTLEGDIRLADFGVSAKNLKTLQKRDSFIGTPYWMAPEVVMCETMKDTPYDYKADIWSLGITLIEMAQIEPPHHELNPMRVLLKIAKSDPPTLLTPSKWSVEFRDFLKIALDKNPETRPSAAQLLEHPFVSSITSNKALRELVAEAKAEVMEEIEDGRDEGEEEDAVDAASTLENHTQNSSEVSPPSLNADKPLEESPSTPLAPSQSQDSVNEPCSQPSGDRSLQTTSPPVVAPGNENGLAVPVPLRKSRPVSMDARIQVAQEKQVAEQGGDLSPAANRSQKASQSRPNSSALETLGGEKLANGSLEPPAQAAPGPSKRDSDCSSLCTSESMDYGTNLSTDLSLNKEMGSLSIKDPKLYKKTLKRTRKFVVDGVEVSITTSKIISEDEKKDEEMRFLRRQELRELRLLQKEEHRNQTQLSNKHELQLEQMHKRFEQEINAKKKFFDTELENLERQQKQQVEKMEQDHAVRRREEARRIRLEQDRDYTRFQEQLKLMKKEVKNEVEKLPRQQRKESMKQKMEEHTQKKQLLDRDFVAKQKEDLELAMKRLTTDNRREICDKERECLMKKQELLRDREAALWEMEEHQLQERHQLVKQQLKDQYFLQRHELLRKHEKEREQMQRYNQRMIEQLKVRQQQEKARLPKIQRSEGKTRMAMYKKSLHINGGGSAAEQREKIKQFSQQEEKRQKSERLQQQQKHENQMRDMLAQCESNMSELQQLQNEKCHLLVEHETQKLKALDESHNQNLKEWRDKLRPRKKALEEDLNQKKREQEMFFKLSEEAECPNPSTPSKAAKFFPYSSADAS

[10] = biological target: T3, Tyrosine-protein kinase ZAP-70 (Homo sapiens) (UniProt P43403); assay: Inhibition of human ZAP70 at 1.82 nM by HotSpot assay relative to control
T3 sequence (whole entry): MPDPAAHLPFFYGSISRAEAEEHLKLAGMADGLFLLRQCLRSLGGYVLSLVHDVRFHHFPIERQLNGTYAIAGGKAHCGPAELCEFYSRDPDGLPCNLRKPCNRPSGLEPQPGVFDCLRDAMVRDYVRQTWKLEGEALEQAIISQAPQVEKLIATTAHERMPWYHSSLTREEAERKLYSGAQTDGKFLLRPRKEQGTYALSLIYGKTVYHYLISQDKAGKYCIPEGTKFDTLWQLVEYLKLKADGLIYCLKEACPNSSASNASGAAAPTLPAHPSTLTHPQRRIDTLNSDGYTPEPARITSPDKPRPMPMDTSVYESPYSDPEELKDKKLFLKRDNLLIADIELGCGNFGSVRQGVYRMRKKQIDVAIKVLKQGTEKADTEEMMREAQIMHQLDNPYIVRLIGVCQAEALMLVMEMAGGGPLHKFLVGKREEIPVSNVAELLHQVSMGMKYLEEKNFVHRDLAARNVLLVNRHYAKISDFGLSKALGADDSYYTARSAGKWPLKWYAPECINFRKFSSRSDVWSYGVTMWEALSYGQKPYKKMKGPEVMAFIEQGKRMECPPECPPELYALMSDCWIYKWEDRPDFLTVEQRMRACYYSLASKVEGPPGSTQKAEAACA

| inhibition [1] | inhibition [2] | inhibition [3] | inhibition [4] | inhibition [5] | inhibition [6] | inhibition [7] | inhibition [8] | inhibition [9] | inhibition [10] | SMILES |
| --- | --- | --- | --- | --- | --- | --- | --- | --- | --- | --- |
| 1.45% | -3.25% | -1.1% | 2.16% | -4.72% | -0.63% | 0.1% | – | – | – | C[C@]1(O)C[C@@H](c2nc(-c3ccc4ccc(-c5ccccc5)nc4c3)c3c(N)nccn32)C1 |
| – | – | – | – | – | – | – | 0.42% | 12% | -2.24% | C[C@@]1(C(=O)Nc2ccc(F)nc2)CCCN1c1nc(Nc2cc(C3CC3)n[nH]2)c2cccn2n1 |
